Measurements taken from patent publication US20230165970A1, “COMPOSITIONS AND METHODS FOR THE TREATMENT OF BACTERIAL INFECTIONS” (priority 2017, published 2023).
≈ marks a conversion by molar mass, not a printed value. Read-outs that look alike come from different tables or passages of the source. *1 amine or outer side, *2 acyl side, *3 side chain or, on linkers, in order; H or OH if unused. Where a SMILES comes first, the peptide text is derived from it. Bridges are numbered along the chain shown (N, C = ends). Roman numbers before positions name the chains, in order. [ ]: non-standard residue; d: D form. The star is where a group is joined. X4 = C#CCOCCOCCOCCOCCNC(=O)CN(CC(=O)[*:1])CC(=O)[*:2]; Propargyl(OCH2CH2)4CO = C#CCOCCOCCOCCOCCC(=O)*; X1 = CCCCCC[C@@H](O)[C@H](N[*:1])C(=O)[*:2]; dCha = N[C@H](CC1CCCCC1)C(=O)O; Nle = CCCC[C@H](N)C(=O)O; Dab = NCC[C@H](N)C(=O)O; azaGly = NNC(=O)O

Legend:
A. baumannii AB5075 = type: cell-based
Description: (§1) Overnight stationary-phase cultures were centrifuged at 3,500×g for 10 min at room temperature and resuspended in 1×PBS to an optical density at 600 nm (OD600) of 0.4 (1×10^8 colony forming units [CFU]/ml) in RPMI with L-glutamine and phenol red (Life Technologies). Bacteria were diluted 1:25 in RPMI ([…]) and 10 ul added to wells of a non-binding 96-well plate (Corning 3641) containing 80 ul of 50% hirudin anti-coagulated blood (complement active) in RPMI. […] MBC was defined as the minimum conjugate concentration required for bacterial clearance (Table 8A and Table 8B). An untreated growth control (40% blood, 0 ug/ml conjugate) was included in all assays as a growth comparator.
(§2) MBC was defined as the minimum compound concentration required for complete bacterial clearance (Table 18).
(§3) In most cases, 2-4 fold improvements in antibacterial activity for the conjugates are observed in the presence of complement active human blood.

P. aeruginosa PAO1 = type: cell-based
Description: as §1, §2, §3

E. coli ATCC 25922 = type: cell-based
Description: as §1, §2, §3

Sa RN = type: cell-based
Kp 6951 (COL^R) = type: cell-based, Klebsiella pneumoniae
Description: (§4) Briefly, stock solutions of all antibacterial agents were prepared fresh in appropriate solvents (i.e. PBS, pH 7.4, DMSO, DI, etc.). Stock concentrations for drug conjugates were made at 12.5× the highest final assay concentration. All were serially diluted 2-fold, 8 or 12 times in a 96-well PCR plate (VWR cat. no. 83007-374). Bacterial cell suspensions generated from Mueller-Hinton agar (MHA) plate cultures were prepared in 0.85% saline and adjusted to ˜0.1 OD600 nm. […] For the conjugates, 92 μL of each cell suspension in RPMI B were added in the same 96-well plate assay format. […] Compounds were tested against a 14-strain panel comprised of E. coli (Ec), A. baumannii (Ab), P. aeruginosa (Pa), and K. pneumoniae (Kp) that were obtained from ATCC (Ec 25922, Ec 2489, Ab 19606, Pa 27853, Pa PAO1, Kp 43816, Kp 10031), Centers for Disease Control and Prevention (Ec AR0349), BEI Resources (Ab AB5075), Micromyx LLC (Ab 8990, Kp 6951), and Belgian Coordinated Collections of Microorganisms (Pa LES431) or generated in-house (Ec 25922 64X-1). […] E. coli strain ATCC 25922 and P. aeruginosa strain LES431 were run in the presence and absence of 50% heat-inactivated fetal bovine serum (FBS; Sigma, cat. no. F4135-100 mL). Plates were mixed by shaking then incubated at 35° C. overnight (16-20 h).

Kp 10031 = type: cell-based, Klebsiella pneumoniae
Description: as §4

Kp 43816 = type: cell-based, Klebsiella pneumoniae
Description: as §4

Ab 19606 (COLhet^R) = type: cell-based, Acinetobacter baumannii; details: media CA-MHB
Description: (§5) Briefly, stock solutions of all antibacterial agents were prepared fresh in appropriate solvents (i.e. PBS, pH 7.4, DMSO, DI, etc.). Stock concentrations for drug conjugates were made at 12.5× the highest final assay concentration. All were serially diluted 2-fold, 8 or 12 times in a 96-well PCR plate (VWR cat. no. 83007-374). Bacterial cell suspensions generated from Mueller-Hinton agar (MHA) plate cultures were prepared in 0.85% saline and adjusted to ˜0.1 OD600 nm. Next, cell suspensions were diluted 1:200 in RPMI containing 5% Luria Broth (LB) to improve bacterial growth (BD Difco, cat. no. 244620) to a concentration of ˜5×10^5 CFU (colony-forming units)/mL. Due to poor solubility in Mueller-Hinton broth media, drug conjugates were evaluated in RPMI 1640 medium (+) L-glutamine, (+) sodium bicarbonate, pH 7.4 (“RPMI B”; Gibco, cat. no. 11875-085) as has been described as a more physiologically-relevant media for susceptibility testing of antibacterial compounds (1). For the conjugates, 92 μL of each cell suspension in RPMI B were added in the same 96-well plate assay format. […] Compounds were tested against a 14-strain panel comprised of E. coli (Ec), A. baumannii (Ab), P. aeruginosa (Pa), and K. pneumoniae (Kp) that were obtained from ATCC (Ec 25922, Ec 2489, Ab 19606, Pa 27853, Pa PAO1, Kp 43816, Kp 10031), Centers for Disease Control and Prevention (Ec AR0349), BEI Resources (Ab AB5075), Micromyx LLC (Ab 8990, Kp 6951), and Belgian Coordinated Collections of Microorganisms (Pa LES431) or generated in-house (Ec 25922 64X-1). […] E. coli strain ATCC 25922 and P. aeruginosa strain LES431 were run in the presence and absence of 50% heat-inactivated fetal bovine serum (FBS; Sigma, cat. no. F4135-100 mL). Plates were mixed by shaking then incubated at 35° C. overnight (16-20 h).

Ec 25922 = type: cell-based, Escherichia coli; details: for MIC in RPMI EC 25922: pH 7.4
Description: as §4

Ec 2469 = type: cell-based, Escherichia coli
Description: as §4

Ab 8990 (COL^R) = type: cell-based, Acinetobacter baumannii
Description: as §4

Ab AB5075 = type: cell-based, Acinetobacter baumannii; details: for MIC in RPMI AB 5075: pH 7.4
Description: as §4

Pa PAO1 = type: cell-based, Pseudomonas aeruginosa; details: for MIC: PAO1; for MIC in RPMI PA 01: PAO1, pH 7.4
Description: as §4

Pa LES431 = type: cell-based, Pseudomonas aeruginosa
Description: as §4

Pa 27853 = type: cell-based, Pseudomonas aeruginosa
Description: as §4

Ec AR0349 (mcr-1, COL^R) = type: cell-based, Escherichia coli; details: media CA-MHB
Description: as §5

Ec 25922 64X-1 (COL^R) = type: cell-based, Escherichia coli; details: media CA-MHB
Description: as §5

[1] = system: Ab AB58705 (COL^R) IpxD, mut. (no LPS); type: cell-based, Acinetobacter baumannii; details: media CA-MHB

SMILES | MBC in blood AB 5075 (A. baumannii AB5075) [µg/mL] | MBC in blood PA 01 (P. aeruginosa PAO1) [µg/mL] | MBC in blood EC 25922 (E. coli ATCC 25922) [µg/mL] | MIC (Sa RN) [µg/mL] | MIC (Kp 6951 (COL^R)) [µg/mL] | MIC (Kp 10031) [µg/mL] | MIC (Kp 43816) [µg/mL] | MIC (Ab 19606 (COLhet^R)) [µg/mL] | MIC (Ec 25922) [µg/mL] | MIC in RPMI EC 25922 (Ec 25922) [µg/mL] | MIC (Ec 2469) [µg/mL] | MIC (Ab AB5075) [µg/mL] | MIC in RPMI AB 5075 (Ab AB5075) [µg/mL] | MIC (Pa PAO1) [µg/mL] | MIC in RPMI PA 01 (Pa PAO1) [µg/mL] | MIC (Pa LES431) [µg/mL] | MIC (Pa 27853) [µg/mL] | MIC (Ec AR0349 (mcr-1, COL^R)) [µg/mL] | MIC (Ec 25922 64X-1 (COL^R)) [µg/mL] | MIC [1] [µg/mL] | other results
C#CCOCCOCCOCCOCCC(=O)N[C@@H](CCN)C(=O)N[C@H](C(=O)NNC(=O)N[C@H]1CCNC(=O)[C@H]([C@@H](C)O)NC(=O)[C@H](CCN)NC(=O)[C@H](CCN)NC(=O)[C@H](CC(C)C)NC(=O)[C@@H](CC2CCCCC2)NC(=O)[C@H](CCN)NC1=O)[C@H](O)CCCCCC [Int-115] ({Propargyl(OCH2CH2)4CO}-[Dab][X1][azaGly][Dab][Dab][dCha]L[Dab][Dab]T; lactam 4-C) | 0.05 (≈ 0.0373 µM) | >0.2 | 0.05 (≈ 0.0373 µM) | >128 | 128 (≈ 95.5 µM) | 2 (≈ 1.49 µM) | 2 (≈ 1.49 µM) | 4 (≈ 2.99 µM) | 2 (≈ 1.49 µM) | 2.23 (≈ 1.66 µM) | 2 (≈ 1.49 µM) | 2 (≈ 1.49 µM) | 1.11 (≈ 0.829 µM) | 8 (≈ 5.97 µM) | 8.91 (≈ 6.65 µM) | 4 (≈ 2.99 µM) | 4 (≈ 2.99 µM) | 16 (≈ 11.9 µM) | 64 (≈ 47.8 µM) | 64 (≈ 47.8 µM) | MIC (Ab 8990 (COL^R); Ab 8990 (COL^R), media CA-MHB): >128 µg/mL
C#CCOCCOCCOCCOCCNC(=O)CN(CC(=O)N[C@@H](CCCC)C(=O)N[C@@H](CCN)C(=O)N[C@H](C(=O)NNC(=O)N[C@H]1CCNC(=O)[C@H]([C@@H](C)O)NC(=O)[C@H](CCN)NC(=O)[C@H](CCN)NC(=O)[C@H](CC(C)C)NC(=O)[C@@H](CC2CCCCC2)NC(=O)[C@H](CCN)NC1=O)[C@H](O)CCCCCC)CC(=O)N[C@@H](CCCC)C(=O)N[C@@H](CCN)C(=O)N[C@H](C(=O)NNC(=O)N[C@H]1CCNC(=O)[C@H]([C@@H](C)O)NC(=O)[C@H](CCN)NC(=O)[C@H](CCN)NC(=O)[C@H](CC(C)C)NC(=O)[C@@H](CC2CCCCC2)NC(=O)[C@H](CCN)NC1=O)[C@H](O)CCCCCC [Int-117] (I: [Nle][Dab][X1][azaGly][Dab][Dab][dCha]L[Dab][Dab]T / II: [Nle][Dab][X1][azaGly][Dab][Dab][dCha]L[Dab][Dab]T; lactam I:5-I:C, II:5-II:C; linker I:N-II:N via X4) | >0.2 | >0.2 | >0.2 | 16 (≈ 5.74 µM) | 16 (≈ 5.74 µM) | 8 (≈ 2.87 µM) | 8 (≈ 2.87 µM) | 8 (≈ 2.87 µM) | 8 (≈ 2.87 µM) | 1.08 (≈ 0.387 µM) | 8 (≈ 2.87 µM) | 8 (≈ 2.87 µM) | 1.08 (≈ 0.387 µM) | 16 (≈ 5.74 µM) | 2.16 (≈ 0.774 µM) | 4 (≈ 1.43 µM) | 8 (≈ 2.87 µM) | 8 (≈ 2.87 µM) | 8 (≈ 2.87 µM) | 8 (≈ 2.87 µM) | MIC (Ab 8990 (COL^R)): 8 µg/mL (≈ 2.87 µM)
